Experimental data taken from patent US20240285627A1, “DRUG COMBINATION OF FAK INHIBITOR AND IMMUNOGENIC CELL DEATH INDUCER AND USE THEREOF” (INXMED (NANJING) CO., LTD., priority 2022, published 2024).

Assays:
Mouse lung cancer KPL [1] = test: KPL cells with IN10018 and MRTX1133: microscope and flow cytometry for CRT / Annexin V (Example 6); format: cell-based; conditions: 48 hours, IN10018 10 μM, MRTX1133 15 μM
Method: (§1) Mouse lung cancer KPL (Insitute of Biochemistry and Cell Biology) were cultured with RPMI-1640 (Shanghai Basalmedia, classification number: L210KJ, batch number: F210916)+10% FBS (Gibco, classification number: 10099-141c, batch number: 2158737cp) and passaged twice. When the cells were in good condition, the culture solution was placed in a 24-well plate. After the cells were spread for 24 hours, four groups were set up, wherein the first group was a control group, and the culture medium was added; the second group was IN10018 with a concentration of 10 μM; the third group was MRTX1133 (SuperLan Chemical Co., Ltd., classification number: P2621928-55-8, batch number: 131005) with a concentration of 15 μM; and the fourth group was IN10018 (10 μM) combined with MRTX1133 (15 μM). The drugs were mixed and the mixture was cultured in a 5% CO2 incubator at 37° C. for 48 hours.
(§2) After 48 hours of drug action, the cells were observed under a microscope and photographed, and the photos were kept. Then the cells were collected, subjected to flow analysis, and washed twice with flow buffer (PBS+2% FBS). 0.5 μl of AF647 anti-Calreticulin antibody (abcam, classification number: ab196159, batch number: CR33676773) was added to each well and fully mixed. […] The mixture was cultured at room temperature in the dark for 15 minutes, and then analyzed by flow cytometry.

[2] = tested on: Mouse colon cancer CT26 cells; test: CT26 cells with IN10018 and MRTX1133: microscope and flow cytometry for CRT / Annexin V (Example 4); format: cell-based; conditions: CT26, 48 hours; IN10018 5 μM, MRTX1133 6 μM
Method: as §1, with “Mouse colon” for “Mouse lung”, “cancer CT26 cells” for “cancer KPL”, “of 5” for “of 10”, “of 6” for “of 15”, “IN10018 (5” for “IN10018 (10”, “MRTX1133 (6” for “MRTX1133 (15”
as §2

[3] = tested on: mouse colon cancer CT26 cells allograft tumor; test: In vivo anti-tumor efficacy, BALB/c mouse subcutaneous allograft tumor model of CT26 cells (Example 9)
Method: Mouse colorectal cancer cell CT26 (from Nanjing Kebai Biotechnology Co., Ltd., article number: CBP60043) was maintained and passaged by InxMed (Nanjing) Co., Ltd. Cells were cultured in monolayer in vitro, and the culture conditions were RPMI-1640 medium with 10% fetal bovine serum and 37° C. 5% CO2 incubator. Trypsin-EDTA was used for routine digestion and passage two or three times a week. When the cells were in exponential growth period and the saturation reached 80%-90%, the cells were collected, counted and inoculated.
0.1 mL of cell suspension containing 3×10^5 cells was subcutaneously inoculated on the right back of each mouse. When the tumor volume reached about ˜57 mm^3 (13th day after cell inoculation), mice were randomly divided into groups according to the tumor volume and administered.
The assay index was to investigate whether the tumor growth is inhibited, delayed or cured. The diameter of tumor was measured with vernier caliper, 2˜3 times a week. The formula for calculating the tumor volume is: V=0.5×a×b^2, where a and b represent the long and short diameters of the tumor respectively.
The anti-tumor effect of the compound was evaluated by TGI (%), which reflected the tumor growth inhibition rate. According to the tumor volume on the first day after grouping, the tumor growth inhibition rate TGI (%) was calculated according to the following formula: […]
Statistical analysis was based on the tumor volume at the end of the assay and analyzed by Prism Graphpad software. The comparison between multiple groups was analyzed by Two-way ANOVA and Fisher's LSD test. P<0.05 is considered to have significant difference.

Mouse lung cancer KPL [4] = test: Proliferation of KPL cells, CCK8, MRTX1133 with or without IN10018 (Example 5); format: cell-based; conditions: 72 hours, MRTX1133 alone
Method: Mouse lung cancer KPL (Insitute of Biochemistry and Cell Biology) were cultured with RPMI-1640 (Shanghai Basalmedia, classification number: L210KJ, batch number: F210916)+10% FBS (Gibco, classification number: 10099-141c, batch number: 2158737cp) and passaged twice. When the cells were in good condition, the culture solution was placed in a 96-well plate with 3000 cells/well. After the cells were spread for 24 hours, a culture medium containing MRTX1133 (SuperLan Chemical Co., Ltd., classification number: P2621928-55-8, batch number: 131005) was added. 10 drug action concentrations were set, wherein the first concentration was 30 μM, which was serially diluted 5 times, and the last concentration was a control with a drug concentration of 0. Each drug concentration was set in triplicate. At the same time, another group of cells was established with the same drug concentration as the above method. The difference was that 10 μM IN10018 was added to each well. The drugs were mixed and the mixture was cultured in a 5% CO2 incubator at 37° C. for 72 hours.
After 72 hours of drug action, the cells were observed under a microscope, and 10 μl of CCK8 detection reagent (Cellorlab, classification number: CX001M, batch number: 2571100) was added to each well. […] Then the plate was read with a microplate reader OD450 ([…]).

Row | Compound | cell state under a microscope (Mouse lung cancer KPL [1]) | cell state under a microscope [2] | Tumor volume on Day 0 ([3]; Day 0, at grouping, mean ± SD) | TGI (%) ([3]; Day 14, MRTX1133 5 mg/kg IP QD, IN10018 25 mg/kg PO QD, TIGIT 3 mg/kg IP BIW) | Tumor volume on Day 14 ([3]; Day 14 after group administration, MRTX1133 5 mg/kg IP QD, IN10018 25 mg/kg PO QD, TIGIT 3 mg/kg IP BIW, mean ± SD) | Tumor volume on Day 16 ([3]; Day 16 after group administration, MRTX1133 5 mg/kg IP QD, IN10018 25 mg/kg PO QD, TIGIT 3 mg/kg IP BIW, mean ± SD) | IC50 (Mouse lung cancer KPL [4])
1 | COc1cc(C(=O)NC2CCN(C)CC2)c(F)cc1Nc1ncc(C(F)(F)F)c(Oc2cccc3c2C(=O)N(C)C3)n1 [IN10018] | good | good |  |  |  |  | 
2 | C#Cc1c(F)ccc2cc(O)cc(-c3ncc4c(N5CC6CCC(C5)N6)nc(OC[C@@]56CCCN5C[C@H](F)C6)nc4c3F)c12 [MRTX1133] | poor | poor | 57.4 ± 10.8 mm^3 | 63.2% | 1067.8±302.1 mm^3 | 1672.1±548.1 mm^3 | 1760 nM
